{
  "source": "patent US6833364B1",
  "about": "“Substituted pyrazole derivatives” (Bayer HealthCare AG, priority 1998, dated 2004)",
  "key": {"[1]": {"system": "soluble guanylate cyclase", "test": "Stimulation of soluble guanylate cyclase in primary endothelial cells (intracellular cGMP)", "type": "cell-based", "conditions": "pig aortic primary endothelial cells, 10 min", "description": "Stimulation of Soluble Guanylate Cyclase in Primary Endothelial Cells\nPrimary endothelial cells were isolated from pig aortas by treatment with collagenase soln. The cells were then cultured in culture medium at 37 °C./5% CO2 until confluence was reached. For the investigations, the cells were passaged, inoculated into 24-well cell culture plates and subcultured until reaching confluence (˜2×10^5 cells/well). For the stimulation of endothelial guanylate cyclase, the culture medium was aspirated and the cells were washed once with Ringer solution. After removing the Ringer solution, the cells were incubated for 10 minutes, at 37° C./5% CO2 in stimulation buffer. […] After a further 10 minutes the buffer solution was aspirated and cold buffer at 4° C. was added to the cells. The cells were then lysed at −20° C. for 16 hours. The supernatants containing the intracellular cGMP were then removed and the cGMP concentration was determined by means of the cGMP-SPA system (Amersham Buchler, Brunswick)."}, "[2]": {"system": "rabbit aortal rings", "test": "Vasorelaxant action in vitro, aortal rings contracted with phenylephrine", "conditions": "Oryctolagus cuniculus; rabbit aorta rings, phenylephrine contraction; read-out: IC50 (concentration reducing height of phenylephrine contraction by 50%)", "description": "Vasorelaxant Action in vitro\nRabbits are anaesthetized by a blow to the neck and exanguinated. The aorta is removed, freed from adhering tissue, divided into 1.5 mm wide rings and individually transferred under a pretension into 5 ml organ baths containing a warm, carbogen-aerated Krebs-Henseleit solution at 37° C. of the following composition (mM): NaCl: 119; KCl: 4.8; CaCl2×2 H2O: 1; MgSO4×7 H2O; 1.4; KH2PO4: 1.2; NaHCO3: 25; glucose: 10. The contractility is detected using Statham UC2 cells, amplified and digitalized by means of A/D converters (DAS-1802 HC, Keithley Instruments Munich), and recorded in parallel on linear recorders. To produce a contraction, phenylephrin is added to the bath cumulatively in increasing concentration. After several control cycles, the substance to be investigated is investigated in each further passage in increasing dosage in each case, and the height of the contraction is compared with the height of the contraction achieved in the last preliminary passage. From this, the concentration which is necessary in order to reduce the height of the control value by 50% (IC50) is calculated. The standard administration volume is 5 μl, and the proportion of DMSO in the bath solution corresponds to 0.1%."}, "[3]": {"system": "anaesthetized rats", "test": "Blood pressure measurements in anaesthetized rats", "type": "in vivo", "conditions": "anaesthetized male Wistar rats", "description": "Blood Pressure Measurements in Anaesthetized Rats\nMale Wistar rats having a bodyweight of 300-350 g are anaesthetized with Thiopental (100 mg/kg i.p.). After tracheotomy, a catheter is inserted into the femoral artery for blood pressure measurement. The substances to be tested are administered orally in Transcutol, Cremophor EL, H2O (10%/20%/70%) in a volume of 1 ml/kg."}, "[4]": {"system": "human platelets stimulated with collagen", "test": "Inhibition of platelet aggregation in vitro (collagen-induced)", "type": "cell-based", "conditions": "10 min, washed human platelets, 10 min incubation at 37° C.", "description": "To determine the cardiovascular action, the following investigations were carried out: In in vitro investigations on the isolated enzyme and on cells of vascular origin, the effect on guanylate cyclase-dependent cGMP formation was tested with and without NO donor. The anti-aggregatory properties were shown on human platelets stimulated with collagen. The vasorelaxant action was determined in rabbit aortal rings preconcentrated with phenylephrine. The hypotensive action was investigated in anaesthetized and awake rats.\nTo determine the platelet-aggregation, blood from healthy volunteers of both sexes was used. As an anticoagulant, 9 parts of blood were admixed to one part of 3.8% strength sodium citrate solution. The blood was centrifuged at 900 rpm for 20 min. The pH of the platelet-rich plasma obtained was adjusted to pH 6.5 using ACD solution (sodium citrate/citric acid/glucose). The platelets were subsequently centrifuged off and resuspended in buffer and once more centrifuged off. The platelet pellet was suspended in buffer and mixed with an additional 2 mmol/l of CaCl2.\nTo measure the aggregation, aliquots of the platelet suspension were incubated with the substance to tested at 37° C. for 10 min."}, "[5]": {"system": "awake rabbits", "test": "Erection-promoting action of guanylate cyclase stimulators in awake rabbits", "type": "in vivo, chinchilla rabbits", "conditions": "for Erection-promoting effect, +SNP i.v.: with sodium nitroprusside 0.2 mg/kg i.v. simultaneously; for Erection-promoting effect, +SNP po: sodium nitroprusside 0.2 mg/kg i.v. 30 min later", "text": "For a complete and lasting erection to occur, the cavernous arteries and the entire cavernous body architecture, which is formed by a network of smooth muscle cells and collagen connective tissue, has to be at maximum dilation so that the corpus cavernosum can fill completely with blood (Anderson K.-E. and Wagner G., “Physiology of Penile Erection.”. Physiological Reviews 75, 191-236 (1995); Meinhardt W. Kropmann R F, Vermeig P, Lycclama a Nigelholt and Zwartendijk J. “The Influence of Medication on Erectile dysfunction.” Int. J. of Impotence Res. 9, 17-26 (1997). Relaxation of smooth muscles is mediated by NO which, in the case of sexual stimulation, is released by non-adrenergic, non-cholinergic nerve fibres in the endothelial cells of the blood vessels of the corpus cavernosum. NO activates guanylate cyclase, and the resulting increase in cGMP leads to dilation of the smooth muscles of the corpus cavernosum and consequently to an erection. To test the efficacy of the substances according to the invention, awake rabbits were used. The species rabbit was chosen since neurophysiology, haemodynamic and the control of contraction and relaxation of the smooth muscles of the corpus cavernosum of rabbit and man are quite similar (Meyer M F, Taher H., Krah H., Staubesand J., Becker A J, Kircher M, Mayer B., Jonas U., Forsmann W G., Stief Ch.G. “Intracavenous Application of SIN-1 in Rabbit and Man: Functional and Toxcological Results.” Annals Urol. 27, 179-182 (1993); Taub H C, Lerner S E, Melman A, Christ G J “Relationship between contraction and relaxation in human and rabbit corpus cavernosum.” Urology 42, 698-671, (1993).\nAdult male chinchilla rabbits having a weight of 3-5 kg are, after delivery, adapted for several days in isolation. They have free access to water and can feed for two hours per day. The animals are kept in a 10/14 hour day/night rhythm (light switched on from 8.00 hours onwards). The room temperature is 22-24° C.\nThe animals are weighed directly before the start of the experiment. For intravenous administration, the substances according to the invention were dissolved in a mixture of Transcutol (GATTEFOSSE GmbH ) diluted with 20% Cremophor (BASF) and water in a ratio of 3/7. Sodium nitroprusside was dissolved in 0.9% NaCl. The substances were injected at the dosages stated in the table in a volume of 0.5 ml/kg into the auricular vein. For oral administration, the test substances were dissolved in a mixture of glycerol: water: polyethylene glycol 6:10:9.69 and administered at the dosages stated in the table in a volume of 1 ml/kg using the stomach tube.\nThe effect of guanylate cyclase stimulators is increased by NO donors.\nThe sodium nitroprusside was injected into the auricular vein at a dosage of 0.2 mg/kg simultaneously with the substance according to the invention. If the substance according to the invention was administered orally, the sodium nitroprusside was injected into the auricular vein of these animals 30 min after the oral administration. Corresponding controls were carried out using the solvent and using sodium nitroprusside on its own.\nAt rest, the penis of the rabbit is not visible in the pubic region and is covered completely by the sheath. The erection is assessed by measuring the length of the protruding penis with a calliper square. Measurements are carried out 5, 10, 15, 30, 45, 60, 120 and 180 min. after the administration of the substance. The effect is calculated as the product of the length of the penis which is not covered by fur in [mm] and the time for which the erection persists in [min].\nThe substances were administered in the dosages stated. The sodium nitroprusside was in each case administered i.v., at 0.2 mg/kg. If the substance according to the invention was administered i.v., the sodium nitroprusside was administered simultaneously, if the substance according to the invention was administered orally, it was administered 30 min later. […]"}},
  "data": [
    {"smiles": "Nc1nc(-c2nn(Cc3ccccc3F)c3ncccc23)ncc1C1CC1", "note": "[Example 1, 3-(4-Amino-5-cyclopropylpyrimidin-2-yl)-1-(2-fluorobenzyl)-1H-pyrazolo[3,4-b]pyridine]", "values": [
      {"measurement": "cGMP", "setting": "[1]; concentration 0.1 μM", "result": 2.2, "unit": "pmol/well"},
      {"measurement": "cGMP", "setting": "[1]; concentration 0.3 μM", "result": 4.0, "unit": "pmol/well"},
      {"measurement": "cGMP", "setting": "[1]; concentration 1.0 μM", "result": 6.9, "unit": "pmol/well"},
      {"measurement": "cGMP", "setting": "[1]; concentration 3.0 μM", "result": 8.5, "unit": "pmol/well"},
      {"measurement": "cGMP", "setting": "[1]; concentration 10 μM", "result": 14.6, "unit": "pmol/well"},
      {"measurement": "IC50", "setting": "[2]", "result": 200, "unit": "nM"},
      {"measurement": "Max. reduction in blood pressure", "setting": "[3]; 1 mg/kg p.o.", "result": 23, "unit": "mm Hg"},
      {"measurement": "Time (of max. reduction in blood pressure)", "setting": "[3]; 1 mg/kg p.o.", "result": 20, "unit": "min"},
      {"measurement": "Max. reduction in blood pressure", "setting": "[3]; 3 mg/kg p.o.", "result": 37, "unit": "mm Hg"},
      {"measurement": "Time (of max. reduction in blood pressure)", "setting": "[3]; 3 mg/kg p.o.", "result": 40, "unit": "min"},
      {"measurement": "IC50", "setting": "[4]", "result": 3, "unit": "nM"},
      {"measurement": "Erection-promoting effect, +SNP i.v.", "setting": "[5]; 0.3 mg/kg i.v.", "result": "140 [mm] × [min]"},
      {"measurement": "Erection-promoting effect, +SNP i.v.", "setting": "[5]; 1 mg/kg i.v.", "result": "369 [mm] × [min]"},
      {"measurement": "Erection-promoting effect, +SNP po", "setting": "[5]; 1 mg/kg po", "result": "184 [mm] × [min]"},
      {"measurement": "Erection-promoting effect, +SNP po", "setting": "[5]; 3 mg/kg po", "result": "233 [mm] × [min]"},
      {"measurement": "Erection-promoting effect, +SNP po", "setting": "[5]; 10 mg/kg po", "result": "375 [mm] × [min]"},
      {"measurement": "Erection-promoting effect, +SNP po", "setting": "[5]; 30 mg/kg po", "result": "804 [mm] × [min]"},
      {"measurement": "Erection-promoting effect, −SNP po", "setting": "[5]; 30 mg/kg po, without sodium nitroprusside", "result": "418 [mm] × [min]"}
    ]},
    {"smiles": "Nc1nc(-c2nn(Cc3ccccc3F)c3ncccc23)ncc1C1CCC1", "note": "[Example 2, 3-(4-Amino-5-cyclobutylpyrimidin-2-yl)-1-(2-fluorobenzyl)-1H-pyrazolo[3,4-b]pyridine]", "values": [
      {"measurement": "melting point", "result": 214, "unit": "°C"}
    ]},
    {"smiles": "Nc1nc(-c2nn(Cc3ccccc3F)c3ncccc23)ncc1C1CCCC1", "note": "[Example 3, 3-(4-Amino-5-cyclopentylpyrimidin-2-yl)-1-(2-fluorobenzyl)-1H-pyrazolo[3,4-b]pyridine]", "values": [
      {"measurement": "melting point", "result": 208, "unit": "°C"}
    ]},
    {"smiles": "Nc1nc(-c2nn(Cc3ccccc3F)c3ncccc23)ncc1C1CCCCC1", "note": "[Example 4, 3(4-Amino-5-cyclohexylpyrimidin-2-yl)-1-(2-fluorobenzyl)-1H-pyrazolo[3,4-b]pyridine]", "values": [
      {"measurement": "melting point", "result": 213, "unit": "°C"}
    ]}
  ]
}
